# Experimental data from US20120283216A1, “FUNGICIDAL 2-(BICYCLIC ARYLOXY)CARBOXAMIDES” (priority 2009, published 2012).
# Key:
# Assay type in all cases: in vivo
# [1] = tested on: Blumeria graminis f. sp. tritici; assay: Test A: wheat powdery mildew, preventive spray on wheat seedlings, visual disease rating; details: preventive spray at 40 ppm, rated 8 days after inoculation; for pest or weed control at 40 ppm: Blumeria graminis, 192 h, read-out: Test A disease control rating (100 = 100% disease control, 0 = no disease control relative to the controls)
# Summary of the method: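 Wheat seedlings sprayed to run-off with 40 ppm compound (equivalent to 800 g/ha) in acetone/water with 250 ppm surfactant, then dusted with B. graminis spores next day. Held at 20° C. for 8 days before visual rating, 0–100 scale as % disease control relative to controls.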
# Botrytis cinerea = assay: Test C: tomato botrytis, preventive spray on tomato seedlings, visual disease rating; details: preventive spray at 40 ppm, rated after 48 h + 3 days; for pest or weed control at 40 ppm: Botrytis cinerea, 120 h, read-out: Test C disease control rating (100 = 100% disease control, 0 = no disease control relative to the controls)
# Summary of the method: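 Compounds applied at 40 ppm (≈800 g/ha) in acetone/water with surfactant, sprayed to run-off on tomato seedlings. Inoculated next day with B. cinerea spores; 48 h saturated humidity at 20 °C, then 3 days at 27 °C. Visual rating as % disease control versus untreated controls.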
# Septoria tritici = assay: Test B: wheat leaf blotch, preventive spray on wheat seedlings, visual disease rating; details: preventive spray at 40 ppm, rated after 48 h + 19 days; for pest or weed control at 40 ppm: Zymoseptoria tritici, 504 h, read-out: Test B disease control rating (100 = 100% disease control, 0 = no disease control relative to the controls)
# Summary of the method: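 Wheat seedlings were sprayed to run-off with 40 ppm compound (≈800 g/ha) in acetone/water with 250 ppm surfactant, then inoculated with Septoria tritici spores the next day. After 48 h saturated humidity at 20° C and 19 days in a growth chamber at 20° C, disease control was rated visually (0–100% vs controls).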
Compound,"Test A disease control rating (100 = 100% disease control, 0 = no disease control relative to the controls) [1]","Test C disease control rating (100 = 100% disease control, 0 = no disease control relative to the controls) (Botrytis cinerea)","Test B disease control rating (100 = 100% disease control, 0 = no disease control relative to the controls) (Septoria tritici)",pest or weed control at 40 ppm [1],pest or weed control at 40 ppm (Botrytis cinerea),pest or weed control at 40 ppm (Septoria tritici)
CCCOc1ccc2ccc(OC(OC)C(=O)NC(C)(C)CC)cc2c1 (stereo not drawn) [Compound 136],79%,97%,98%,,,
C#CC(C)(C)NC(=O)C(OC)Oc1ccc2ccc(OCCC)cc2c1 (stereo not drawn) [Compound 126],72%,99%,99%,,,
CCC(Oc1ccc2ccc(OCOC)cc2c1)C(=O)NC(C)(C)C (stereo not drawn) [Compound 71],81%,99%,99%,,,
C#CC(C)(C)NC(=O)C(CC)Oc1cnc2ccc(OC)cc2c1 (stereo not drawn) [Compound 147],0%,99%,99%,,,
CCCOc1ccc2ccc(OC(CC)C(=O)NC(C)(C)COC)cc2c1 (stereo not drawn) [Compound 127],94%,99%,99%,,,
CCOCC(C)(C)NC(=O)C(CC)Oc1ccc2ccc(CC)cc2c1 (stereo not drawn) [Compound 139],97%,96%,47%,,,
COC(Oc1cnc2ccc(C#C[Si](C)(C)C)cc2c1)C(=O)NC(C)(C)C (stereo not drawn) [Compound 161],0%,99%,100%,,,
C#CC(CC)(CC)NC(=O)C(CC)Oc1ccc2ccc(OC)cc2c1 (stereo not drawn) [Compound 86],0%,19%,19%,,,
CCC(Oc1ccc2ccc(Br)cc2c1)C(=O)NC(C)(C)CNC(=O)OC(C)(C)C (stereo not drawn) [Compound 12],0%,0%,93%,,,
"CCC(Oc1ccc2ccc(C#N)cc2c1)C(=O)NC(C)(C)COCOC (stereo not drawn) [Compound 22, 2-[(7-cyano-2-naphthalenyl)oxy]-N-[2-(methoxymethoxy)-1,1-dimethylethyl]butanamide]",,,,93%,100%,100%
CCC(Oc1ccc2ccc(Br)cc2c1)C(=O)NC(C)(C)CSC(C)=O (stereo not drawn) [Compound 28],91%,99%,99%,,,
CCC(Oc1ccc2ccc(OC)cc2c1)C(=O)N(CC)C(C)(C)C (stereo not drawn) [Compound 167],,,,0%,68%,64%
C#CC(C)(C)NC(=O)C(CC)Oc1cnc2ccc(Br)cc2c1 (stereo not drawn) [Compound 38],21%,99%,100%,,,
CCC(Oc1ccc2ccc(Br)cc2c1)C(=O)NC(C)(C)C1CO1 (stereo not drawn) [Compound 19],0%,98%,60%,,,
CCOC(Oc1ccc2ccc(OC)cc2c1)C(=O)NC(C)(C)CC (stereo not drawn) [Compound 117],0%,98%,93%,,,
CCC(Oc1ccc2ccc(OC(F)F)cc2c1)C(=O)NC(C)(C)C (stereo not drawn) [Compound 5],,,,99%,100%,99%

Compound,"Test A disease control rating (100 = 100% disease control, 0 = no disease control relative to the controls) [1]","Test C disease control rating (100 = 100% disease control, 0 = no disease control relative to the controls) (Botrytis cinerea)","Test B disease control rating (100 = 100% disease control, 0 = no disease control relative to the controls) (Septoria tritici)",pest or weed control at 40 ppm [1],pest or weed control at 40 ppm (Botrytis cinerea),pest or weed control at 40 ppm (Septoria tritici)
"CCC(Oc1ccc2ccc(Br)cc2c1)C(=O)NC(C)(C)C (stereo not drawn) [Compound 8, 2-[(7-bromo-2-naphthalenyl)oxy]-N-(1,1-dimethylethyl)butanamide]",,,,100%,99%,99%
CCC(Oc1ccc2ccc(Br)cc2c1)C(=O)NC(C)(C)C=O (stereo not drawn) [Compound 17],89%,99%,100%,,,
COC(Oc1ccc2ccc(Br)cc2c1)C(=O)NC(C)(C)C#N (stereo not drawn) [Compound 93],95%,100%,100%,,,
CCCOc1ccc2ccc(OC(OC)C(=O)NC(C)(C)C)cc2c1 (stereo not drawn) [Compound 125],92%,98%,100%,,,
"CCOc1ccc2ccc(OC(CC)C(=O)NC(C)(C)C#N)cc2c1 (stereo not drawn) [Compound 75, N-(1-cyano-1-methylethyl)-2-[(7-ethoxy-2-naphthalenyl)oxy]butanamide]",,,,100%,100%,100%
CCC(Oc1cnc2ccc(Cl)cc2c1)C(=O)NC(C)(C)C (stereo not drawn) [Compound 40],,,,92%,99%,100%
C#CCOc1ccc2ccc(OC(OC)C(=O)NC(C)(C)CC)cc2c1 (stereo not drawn) [Compound 137],87%,99%,94%,,,
"CCC(Oc1ccc2ccc(C)cc2c1)C(=O)NC(C)(C)COC (stereo not drawn) [Compound 159, N-(2-methoxy-1,1-dimethylethyl)-2-[(7-methyl-2-naphthalenyl)oxy]-butanamide]",,,,99%,99%,13%
CCC(Oc1cnc2c(Cl)cc(Cl)cc2c1)C(=O)NC(C)(C)C (stereo not drawn) [Compound 57],,,,0%,99%,99%
"CCC(Oc1ccc2ccc(Br)cc2c1)C(=O)NC(C)(C)COC (stereo not drawn) [Compound 7, 2-[(7-bromo-2-naphthalenyl)oxy]-N-(2-methoxy-1,1-dimethylethyl)butanamide]",,,,100%,99%,99%
"COCC(C)(C)NC(=O)C(C)Oc1ccc2ccc(Br)cc2c1 (stereo not drawn) [Compound 24, 2-[(7-bromo-2-naphthalenyl)oxy]-N-(2-methoxy-1,1-dimethylethyl)propanamide]",,,,100%,98%,100%
"C#CC(C)(C)NC(=O)C(OC)Oc1cnc2ccc(I)cc2c1 (stereo not drawn) [Compound 63, N-(1,1-dimethyl-2-propyn-1-yl)-2-[(6-iodo-3-quinolinyl)oxy]-2-methoxy-acetamide]",,,,93%,99%,99%
CCC(Oc1ccc2ccc(Br)cc2c1)C(=O)NC(C)(C)C#N (stereo not drawn) [Compound 1],91%,100%,100%,,,
"CCC(Oc1ccc2ccc(OC)cc2c1)C(=O)NC(C)(C)C (stereo not drawn) [Compound 3, N-(1,1-dimethylethyl)-2-[(7-methoxy-2-naphthalenyl)oxy]butan amide]",,,,100%,99%,99%
C#Cc1ccc2ncc(OC(OC)C(=O)NC(C)(C)C)cc2c1 (stereo not drawn) [Compound 163],99%,100%,100%,,,
C#CC(C)(C)NC(=O)C(CC)Oc1ccc2ccc(OC(F)F)cc2c1 (stereo not drawn) [Compound 6],98%,100%,100%,,,
